From BindingDB's records for doi:10.1021/acs.jmedchem.9b00500 (2019)
Bridge positions count the residues as written; N and C are the ends. Square brackets hold non-standard residues; d marks the D form. Peptide text beside a SMILES is read from it. I, II: the chains in the order shown. Phe(3,4-Cl2) = N[C@@H](Cc1ccc(Cl)c(Cl)c1)C(=O)O; tBuAla = CC(C)(C)C[C@H](N)C(=O)O; hLeu = CC(C)CC[C@H](N)C(=O)O; Nle = CCCC[C@H](N)C(=O)O

Target: Frizzled-7 (Homo sapiens, UniProt O75084)
Assay: Binding affinity to recombinant human Frizzled-7 (Gln33 to Leu185 residues)/human IgG1 chimeric protein expressed in CHO cells assessed as […] by SPR assay

Row | SMILES | Kd [nM]
1 | CC[C@H](C)[C@H](NC(=O)[C@H](Cc1cnc[nH]1)NC(=O)[C@H](CSSC[C@H](NC(=O)[C@H](Cc1c[nH]c2ccccc12)NC(=O)[C@H](Cc1ccccc1)NC(=O)[C@H](CCC(=O)O)NC(=O)[C@H](CC(C)C)NC(=O)[C@H](CC(=O)O)NC(=O)[C@H](CC(=O)O)NC(=O)[C@H](CO)NC(C)=O)C(=O)N[C@@H](Cc1cnc[nH]1)C(=O)N[C@H](C(=O)N[C@@H](CCSC)C(=O)N[C@@H](Cc1ccc(O)cc1)C(N)=O)[C@@H](C)CC)NC(=O)[C@H](Cc1c[nH]c2ccccc12)NC(=O)[C@H](Cc1ccccc1)NC(=O)[C@H](CCC(=O)O)NC(=O)[C@H](CC(C)C)NC(=O)[C@H](CC(=O)O)NC(=O)[C@H](CC(=O)O)NC(=O)[C@H](CO)NC(C)=O)C(=O)N[C@@H](CCSC)C(=O)N[C@@H](Cc1ccc(O)cc1)C(N)=O (I: Ac-SDDLEFWCHIMY-NH2 / II: Ac-SDDLEFWCHIMY-NH2; disulfide I:8-II:8) | 0.96
2 | CSCC[C@H](NC(=O)[C@@H](CC1CCC1)NC(=O)[C@H](Cc1cnc[nH]1)NC(=O)[C@H](CSSC[C@H](NC(=O)[C@H](Cc1c[nH]c2ccccc12)NC(=O)[C@H](Cc1ccccc1)NC(=O)[C@H](CCC(=O)O)NC(=O)[C@H](CC(C)C)NC(=O)[C@H](CC(=O)O)NC(=O)[C@H](CC(=O)O)NC(=O)[C@H](CO)NC(C)=O)C(=O)N[C@@H](Cc1cnc[nH]1)C(=O)N[C@H](CC1CCC1)C(=O)N[C@@H](CCSC)C(=O)N[C@@H](Cc1ccc(O)cc1)C(N)=O)NC(=O)[C@H](Cc1c[nH]c2ccccc12)NC(=O)[C@H](Cc1ccccc1)NC(=O)[C@H](CCC(=O)O)NC(=O)[C@H](CC(C)C)NC(=O)[C@H](CC(=O)O)NC(=O)[C@H](CC(=O)O)NC(=O)[C@H](CO)NC(C)=O)C(=O)N[C@@H](Cc1ccc(O)cc1)C(N)=O | 2.1
3 | CCCC[C@H](NC(=O)[C@H](CC(=O)O)NC(=O)[C@H](CC(=O)O)NC(=O)[C@H](CO)NC(C)=O)C(=O)N[C@@H](CCC(=O)O)C(=O)N[C@@H](Cc1ccccc1)C(=O)N[C@@H](Cc1c[nH]c2ccccc12)C(=O)N[C@@H](CSSC[C@H](NC(=O)[C@H](Cc1c[nH]c2ccccc12)NC(=O)[C@H](Cc1ccccc1)NC(=O)[C@H](CCC(=O)O)NC(=O)[C@H](CCCC)NC(=O)[C@H](CC(=O)O)NC(=O)[C@H](CC(=O)O)NC(=O)[C@H](CO)NC(C)=O)C(=O)N[C@@H](Cc1cnc[nH]1)C(=O)N[C@H](C(=O)N[C@@H](CCSC)C(=O)N[C@@H](Cc1ccc(O)cc1)C(N)=O)C(C)C)C(=O)N[C@@H](Cc1cnc[nH]1)C(=O)N[C@H](C(=O)N[C@@H](CCSC)C(=O)N[C@@H](Cc1ccc(O)cc1)C(N)=O)C(C)C (I: Ac-SDD[Nle]EFWCHVMY-NH2 / II: Ac-SDD[Nle]EFWCHVMY-NH2; disulfide I:8-II:8) | 23
4 | CSCC[C@H](NC(=O)[C@@H](NC(=O)[C@H](Cc1cnc[nH]1)NC(=O)[C@H](CSSC[C@H](NC(=O)[C@H](Cc1c[nH]c2ccccc12)NC(=O)[C@H](Cc1ccccc1)NC(=O)[C@H](CCC(=O)O)NC(=O)[C@H](CC(C)C)NC(=O)[C@H](CC(=O)O)NC(=O)[C@H](CC(=O)O)NC(=O)[C@H](CO)NC(C)=O)C(=O)N[C@@H](Cc1cnc[nH]1)C(=O)N[C@H](C(=O)N[C@@H](CCSC)C(=O)N[C@@H](Cc1ccc(Cl)c(Cl)c1)C(N)=O)C(C)C)NC(=O)[C@H](Cc1c[nH]c2ccccc12)NC(=O)[C@H](Cc1ccccc1)NC(=O)[C@H](CCC(=O)O)NC(=O)[C@H](CC(C)C)NC(=O)[C@H](CC(=O)O)NC(=O)[C@H](CC(=O)O)NC(=O)[C@H](CO)NC(C)=O)C(C)C)C(=O)N[C@@H](Cc1ccc(Cl)c(Cl)c1)C(N)=O (I: Ac-SDDLEFWCHVM[Phe(3,4-Cl2)]-NH2 / II: Ac-SDDLEFWCHVM[Phe(3,4-Cl2)]-NH2; disulfide I:8-II:8) | 0.9
5 | CSCC[C@H](NC(=O)[C@@H](NC(=O)[C@H](Cc1cnc[nH]1)NC(=O)[C@H](CSSC[C@H](NC(=O)[C@H](Cc1c[nH]c2ccccc12)NC(=O)[C@H](Cc1ccccc1)NC(=O)[C@H](CCC(=O)O)NC(=O)[C@H](CCC(C)C)NC(=O)[C@H](CC(=O)O)NC(=O)[C@H](CC(=O)O)NC(=O)[C@H](CO)NC(C)=O)C(=O)N[C@@H](Cc1cnc[nH]1)C(=O)N[C@H](C(=O)N[C@@H](CCSC)C(=O)N[C@@H](Cc1ccc(O)cc1)C(N)=O)C(C)C)NC(=O)[C@H](Cc1c[nH]c2ccccc12)NC(=O)[C@H](Cc1ccccc1)NC(=O)[C@H](CCC(=O)O)NC(=O)[C@H](CCC(C)C)NC(=O)[C@H](CC(=O)O)NC(=O)[C@H](CC(=O)O)NC(=O)[C@H](CO)NC(C)=O)C(C)C)C(=O)N[C@@H](Cc1ccc(O)cc1)C(N)=O (I: Ac-SDD[hLeu]EFWCHVMY-NH2 / II: Ac-SDD[hLeu]EFWCHVMY-NH2; disulfide I:8-II:8) | 124
6 | CC[C@H](C)[C@H](NC(=O)[C@H](Cc1cnc[nH]1)NC(=O)[C@H](CSSCC[C@H](NC(=O)[C@H](Cc1c[nH]c2ccccc12)NC(=O)[C@H](CC(C)C)NC(=O)[C@H](CCC(=O)O)NC(=O)[C@H](CC(C)C)NC(=O)[C@H](CC(=O)O)NC(=O)[C@H](CC(=O)O)NC(=O)[C@@H](NC(C)=O)[C@@H](C)O)C(=O)N[C@@H](Cc1cnc[nH]1)C(=O)N[C@H](C(=O)N[C@@H](CCSC)C(=O)N[C@@H](Cc1ccc(O)cc1)C(N)=O)[C@@H](C)CC)NC(=O)[C@H](Cc1c[nH]c2ccccc12)NC(=O)[C@H](CC(C)C)NC(=O)[C@H](CCC(=O)O)NC(=O)[C@H](CC(C)C)NC(=O)[C@H](CC(=O)O)NC(=O)[C@H](CC(=O)O)NC(=O)[C@@H](NC(C)=O)[C@H](C)O)C(=O)N[C@@H](CCSC)C(=O)N[C@@H](Cc1ccc(O)cc1)C(N)=O | 6.3
7 | CSCC[C@H](NC(=O)[C@@H](NC(=O)[C@H](Cc1cnc[nH]1)NC(=O)[C@H](CSSC[C@H](NC(=O)[C@H](Cc1c[nH]c2ccccc12)NC(=O)[C@H](Cc1ccccc1)NC(=O)[C@H](CCC(=O)O)NC(=O)[C@H](CC(C)(C)C)NC(=O)[C@H](CC(=O)O)NC(=O)[C@H](CC(=O)O)NC(=O)[C@H](CO)NC(C)=O)C(=O)N[C@@H](Cc1cnc[nH]1)C(=O)N[C@H](C(=O)N[C@@H](CCSC)C(=O)N[C@@H](Cc1ccc(O)cc1)C(N)=O)C(C)C)NC(=O)[C@H](Cc1c[nH]c2ccccc12)NC(=O)[C@H](Cc1ccccc1)NC(=O)[C@H](CCC(=O)O)NC(=O)[C@H](CC(C)(C)C)NC(=O)[C@H](CC(=O)O)NC(=O)[C@H](CC(=O)O)NC(=O)[C@H](CO)NC(C)=O)C(C)C)C(=O)N[C@@H](Cc1ccc(O)cc1)C(N)=O (I: Ac-SDD[tBuAla]EFWCHVMY-NH2 / II: Ac-SDD[tBuAla]EFWCHVMY-NH2; disulfide I:8-II:8) | 0.95
